Reference: ChEMBL document CHEMBL3352739, “Comparative in vivo evaluation of polyalkoxy substituted 4H-chromenes and oxa-podophyllotoxins as microtubule destabilizing agents in the phenotypic sea urchin embryo assay” (2014)

Key:
Paracentrotus lividus [1] = experiment: Antimitotic microtubule destabilizing activity in Paracentrotus lividus L embryos assessed as induction of embryo spinning
Paracentrotus lividus [2] = experiment: Antimitotic microtubule destabilizing activity in Paracentrotus lividus L embryos assessed as induction of cleavage arrest
Paracentrotus lividus [3] = experiment: Antimitotic microtubule destabilizing activity in Paracentrotus lividus L embryos assessed as induction of cleavage alteration
[4] = Cytotoxicity against human NCI60 cells assessed as mean cell growth at 10 uM; format: functional
[5] = Growth inhibition of human RPMI8226 cells after 48 hrs by sulforhodamine B assay; format: functional; conditions: RPMI-8226, 48 h
KM12 = experiment: Growth inhibition of human KM12 cells after 48 hrs by sulforhodamine B assay; format: functional; conditions: KM12, 48 h
MDA-MB-435 = experiment: Growth inhibition of human MDA-MB-435 cells after 48 hrs by sulforhodamine B assay; format: functional; conditions: MDA-MB-435, 48 h
SNB-75 = experiment: Growth inhibition of human SNB75 cells after 48 hrs by sulforhodamine B assay; format: functional; conditions: SNB-75, 48 h
CCRF-CEM = experiment: Growth inhibition of human CCRF-CEM cells after 48 hrs by sulforhodamine B assay; format: functional
NCI-H23 = experiment: Growth inhibition of human NCI-H23 cells after 48 hrs by sulforhodamine B assay; format: functional; conditions: NCI-H23, 48 h
[6] = Growth inhibition of human SF539 cells after 48 hrs by sulforhodamine B assay; format: functional; conditions: SF-539, 48 h
HL-60(TB) = experiment: Growth inhibition of human HL-60(TB) cells after 48 hrs by sulforhodamine B assay; format: functional; conditions: HL-60, 48 h
K562 = experiment: Growth inhibition of human K562 cells after 48 hrs by sulforhodamine B assay; format: functional; conditions: K562, 48 h
[7] = Growth inhibition of human SF295 cells after 48 hrs by sulforhodamine B assay; format: functional; conditions: SF-295, 48 h
SR = experiment: Growth inhibition of human SR cells after 48 hrs by sulforhodamine B assay; format: functional
[8] = Growth inhibition of human RXF393 cells after 48 hrs by sulforhodamine B assay; format: functional; conditions: RXF 393, 48 h
T47D = experiment: Growth inhibition of human T47D cells after 48 hrs by sulforhodamine B assay; format: functional
SF-268 = experiment: Growth inhibition of human SF268 cells after 48 hrs by sulforhodamine B assay; format: functional; conditions: SF-268, 48 h
MDA-MB-231 = experiment: Growth inhibition of human MDA-MB-231 cells after 48 hrs by sulforhodamine B assay; format: functional; conditions: MDA-MB-231, 48 h
[9] = Growth inhibition of human H1299 cells after 48 hrs by sulforhodamine B assay; format: functional; conditions: NCI-H1299, 48 h
[10] = Growth inhibition of human Hs 578T cells after 48 hrs by sulforhodamine B assay; format: functional
[11] = Growth inhibition of human COLO205 cells after 48 hrs by sulforhodamine B assay; format: functional; conditions: COLO 205, 48 h
[12] = Growth inhibition of human PC3 cells after 48 hrs by sulforhodamine B assay; format: functional; conditions: PC-3, 48 h
HOP-62 = experiment: Growth inhibition of human HOP62 cells after 48 hrs by sulforhodamine B assay; format: functional; conditions: HOP-62, 48 h
[13] = Growth inhibition of human UACC257 cells after 48 hrs by sulforhodamine B assay; format: functional; conditions: UACC-257, 48 h
SK-MEL-5 = experiment: Growth inhibition of human SK-MEL-5 cells after 48 hrs by sulforhodamine B assay; format: functional; conditions: SK-MEL-5, 48 h
[14] = Growth inhibition of human OVCAR4 cells after 48 hrs by sulforhodamine B assay; format: functional; conditions: OVCAR-4, 48 h
[15] = Growth inhibition of human UO31 cells after 48 hrs by sulforhodamine B assay; format: functional; conditions: UO-31, 48 h
[16] = Growth inhibition of human HCT116 cells after 48 hrs by sulforhodamine B assay; format: functional; conditions: HCT-116, 48 h
NCI-H322M = experiment: Growth inhibition of human NCI-H322M cells after 48 hrs by sulforhodamine B assay; format: functional
[17] = Growth inhibition of human OVCAR3 cells after 48 hrs by sulforhodamine B assay; format: functional; conditions: OVCAR-3, 48 h
NCI-H226 = experiment: Growth inhibition of human NCI-H226 cells after 48 hrs by sulforhodamine B assay; format: functional; conditions: NCI-H226, 48 h
SN12C = experiment: Growth inhibition of human SN12C cells after 48 hrs by sulforhodamine B assay; format: functional
MCF7 = experiment: Growth inhibition of human MCF7 cells after 48 hrs by sulforhodamine B assay; format: functional; conditions: MCF7, 48 h
CAKI-1 = experiment: Growth inhibition of human CAKI-1 cells after 48 hrs by sulforhodamine B assay; format: functional; conditions: CAKI-1, 48 h
[18] = Growth inhibition of human BT549 cells after 48 hrs by sulforhodamine B assay; format: functional; conditions: BT-549, 48 h
[19] = Growth inhibition of human OVCAR5 cells after 48 hrs by sulforhodamine B assay; format: functional; conditions: OVCAR-5, 48 h
[20] = Growth inhibition of human MOLT4 cells after 48 hrs by sulforhodamine B assay; format: functional; conditions: MOLT-4, 48 h
SK-OV-3 = experiment: Growth inhibition of human SKOV3 cells after 48 hrs by sulforhodamine B assay; format: functional; conditions: SK-OV-3, 48 h
[21] = Growth inhibition of human HCC2998 cells after 48 hrs by sulforhodamine B assay; format: functional; conditions: HCC 2998, 48 h
NCI-H522 = experiment: Growth inhibition of human NCI-H522 cells after 48 hrs by sulforhodamine B assay; format: functional; conditions: NCI-H522, 48 h
ACHN = experiment: Growth inhibition of human ACHN cells after 48 hrs by sulforhodamine B assay; format: functional
[22] = Cytotoxicity against human NCI60 cells; format: functional
786-0 = experiment: Growth inhibition of human 786-0 cells after 48 hrs by sulforhodamine B assay; format: functional; conditions: 786-0, 48 h
[23] = Growth inhibition of human OVCAR8 cells after 48 hrs by sulforhodamine B assay; format: functional; conditions: OVCAR-8, 48 h
[24] = Growth inhibition of human HCT15 cells after 48 hrs by sulforhodamine B assay; format: functional; conditions: HCT-15, 48 h
MDA-MB-468 = experiment: Growth inhibition of human MDA-MB-468 cells after 48 hrs by sulforhodamine B assay; format: functional; conditions: MDA-MB-468, 48 h
HT-29 = experiment: Growth inhibition of human HT-29 cells after 48 hrs by sulforhodamine B assay; format: functional; conditions: HT-29, 48 h
SNB-19 = experiment: Growth inhibition of human SNB19 cells after 48 hrs by sulforhodamine B assay; format: functional; conditions: SNB-19, 48 h
NCI-H460 = experiment: Growth inhibition of human NCI-H460 cells after 48 hrs by sulforhodamine B assay; format: functional; conditions: NCI-H460, 48 h
SW-620 = experiment: Growth inhibition of human SW620 cells after 48 hrs by sulforhodamine B assay; format: functional; conditions: SW-620, 48 h
DU-145 = experiment: Growth inhibition of human DU145 cells after 48 hrs by sulforhodamine B assay; format: functional; conditions: DU-145, 48 h
A498 = experiment: Growth inhibition of human A498 cells after 48 hrs by sulforhodamine B assay; format: functional; conditions: A498, 48 h
[25] = Growth inhibition of human UACC62 cells after 48 hrs by sulforhodamine B assay; format: functional; conditions: UACC-62, 48 h
M14 = experiment: Growth inhibition of human M14 cells after 48 hrs by sulforhodamine B assay; format: functional; conditions: M14, 48 h
[26] = Growth inhibition of human NCI-ADR-RES cells after 48 hrs by sulforhodamine B assay; format: functional
A549 = experiment: Growth inhibition of human A549/ATCC cells after 48 hrs by sulforhodamine B assay; format: functional; conditions: A549, 48 h
IGROV-1 = experiment: Growth inhibition of human IGROV1 cells after 48 hrs by sulforhodamine B assay; format: functional; conditions: IGROV-1, 48 h
TK-10 = experiment: Growth inhibition of human TK10 cells after 48 hrs by sulforhodamine B assay; format: functional; conditions: TK-10, 48 h

COc1ccc2c(c1)OC(N)=C(C#N)C2c1cc(OC)c2c(c1)OCCO2 (configuration not stated)
EC (Paracentrotus lividus [1]): 0.1 µM
EC (Paracentrotus lividus [2]): 0.02 µM
EC (Paracentrotus lividus [3]): 0.005 µM

COc1ccc2c(c1)OC(N)=C(C#N)[C@H]2c1cc(OC)c(OC)c(OC)c1
EC (Paracentrotus lividus [1]): > 5 µM
EC (Paracentrotus lividus [2]): > 4 µM
EC (Paracentrotus lividus [3]): 2 µM

COc1ccc(C2C(C#N)=C(N)Oc3cc(O)ccc32)cc1 (configuration not stated)
EC (Paracentrotus lividus [1]): > 4 µM
EC (Paracentrotus lividus [2]): > 4 µM
EC (Paracentrotus lividus [3]): > 4 µM
Activity [4]: 96%

COc1cccc([C@@H]2C(C#N)=C(N)Oc3cc(OC)ccc32)c1
EC (Paracentrotus lividus [1]): 4 µM
EC (Paracentrotus lividus [2]): 0.5 µM
EC (Paracentrotus lividus [3]): 0.05 µM

COc1ccccc1C1C(C#N)=C(N)Oc2cc(O)ccc21 (configuration not stated)
EC (Paracentrotus lividus [1]): > 5 µM
EC (Paracentrotus lividus [2]): > 4 µM
EC (Paracentrotus lividus [3]): 0.5 µM

COc1ccc2c(c1)OC(N)=C(C#N)C2c1ccc(OC)c(OC)c1 (configuration not stated)
EC (Paracentrotus lividus [1]): 1 µM
EC (Paracentrotus lividus [2]): 0.2 µM
EC (Paracentrotus lividus [3]): 0.05 µM

COc1cccc(C2C(C#N)=C(N)Oc3cc(OC)ccc32)c1 (configuration not stated)
GI50 [5]: 37.4 nM
GI50 (KM12): 30.3 nM
GI50 (MDA-MB-435): < 10 nM
GI50 (SNB-75): 27 nM
GI50 (CCRF-CEM): 31.2 nM
EC (Paracentrotus lividus [1]): 0.05 µM
GI50 (NCI-H23): 40 nM
GI50 [6]: 25 nM
GI50 (HL-60(TB)): 25 nM
GI50 (K562): 19.7 nM
EC (Paracentrotus lividus [2]): 0.01 µM
GI50 [7]: 25.4 nM
GI50 (SR): 20.2 nM
GI50 [8]: 26 nM
GI50 (T47D): 43.7 nM
GI50 (SF-268): 73.5 nM
GI50 (MDA-MB-231): 54.6 nM
GI50 [9]: 55 nM
GI50 [10]: 28.3 nM
GI50 [11]: 45.2 nM
GI50 [12]: 35.7 nM
GI50 (HOP-62): 41.6 nM
GI50 [13]: 12400 nM
GI50 (SK-MEL-5): 50.3 nM
GI50 [14]: 535 nM
GI50 [15]: 57.2 nM
GI50 [16]: 47.9 nM
EC (Paracentrotus lividus [3]): 0.002 µM
GI50 (NCI-H322M): 63.1 nM
GI50 [17]: 27.8 nM
GI50 (NCI-H226): 835 nM
GI50 (SN12C): 69.3 nM
GI50 (MCF7): 17.1 nM
GI50 (CAKI-1): 42.6 nM
GI50 [18]: 87.2 nM
GI50 [19]: 66.2 nM
GI50 [20]: 55.7 nM
GI50 (SK-OV-3): 34 nM
GI50 [21]: 51.5 nM
GI50 (NCI-H522): < 10 nM
GI50 (ACHN): 120 nM
GI50 [22]: 55 nM
GI50 (786-0): 50.7 nM
GI50 [23]: 51.4 nM
GI50 [24]: 36.6 nM
GI50 (MDA-MB-468): 35 nM
GI50 (HT-29): 37 nM
GI50 (SNB-19): 3770 nM
GI50 (NCI-H460): 36.4 nM
GI50 (SW-620): 38.1 nM
GI50 (DU-145): 35.1 nM
GI50 (A498): 18.6 nM
GI50 [25]: 70.5 nM
GI50 (M14): 26.8 nM
GI50 [26]: 14.9 nM
GI50 (A549): 45.2 nM
GI50 (IGROV-1): 48.2 nM
GI50 (TK-10): 11800 nM

COc1ccc(C2C(C#N)=C(N)Oc3cc(OC)ccc32)cc1 (configuration not stated)
EC (Paracentrotus lividus [1]): > 5 µM
EC (Paracentrotus lividus [2]): 1 µM
EC (Paracentrotus lividus [3]): 0.1 µM

COc1ccc(C2C(C#N)=C(N)Oc3cc(O)ccc32)cc1OC (configuration not stated)
EC (Paracentrotus lividus [1]): > 4 µM
EC (Paracentrotus lividus [2]): > 4 µM
EC (Paracentrotus lividus [3]): > 4 µM
Activity [4]: 99.4%

COc1cc(C2C(C#N)=C(N)Oc3cc(O)ccc32)c(OC)c(OC)c1OC (configuration not stated)
EC (Paracentrotus lividus [1]): > 4 µM
EC (Paracentrotus lividus [2]): > 4 µM
EC (Paracentrotus lividus [3]): > 4 µM

COc1cc(C2C(C#N)=C(N)Oc3cc(O)ccc32)cc2c1OCO2 (configuration not stated)
EC (Paracentrotus lividus [1]): 10 µM
EC (Paracentrotus lividus [2]): 4 µM
EC (Paracentrotus lividus [3]): 0.5 µM

COc1ccc2c(c1)OC(N)=C(C#N)C2c1cc2c(c([N+](=O)[O-])c1)OCCO2 (configuration not stated)
EC (Paracentrotus lividus [1]): 1 µM
EC (Paracentrotus lividus [2]): 0.1 µM
EC (Paracentrotus lividus [3]): 0.02 µM

COc1ccc2c(c1)OC(N)=C(C#N)C2c1cc(OC)c2c(c1OC)OCO2 (configuration not stated)
EC (Paracentrotus lividus [1]): 4 µM
EC (Paracentrotus lividus [2]): 1 µM
EC (Paracentrotus lividus [3]): 0.1 µM

COc1ccc(C2C(C#N)=C(N)Oc3cc(O)ccc32)c(OC)c1 (configuration not stated)
EC (Paracentrotus lividus [1]): > 4 µM
EC (Paracentrotus lividus [2]): > 4 µM
EC (Paracentrotus lividus [3]): > 4 µM

COc1cc(OC)c(C2C(C#N)=C(N)Oc3cc(O)ccc32)c(OC)c1 (configuration not stated)
EC (Paracentrotus lividus [1]): > 4 µM
EC (Paracentrotus lividus [2]): > 4 µM

N#CC1=C(N)Oc2cc(O)ccc2C1c1ccccc1F (configuration not stated)
EC (Paracentrotus lividus [1]): > 5 µM
EC (Paracentrotus lividus [2]): 4 µM
EC (Paracentrotus lividus [3]): 1 µM

N#CC1=C(N)Oc2cc(O)ccc2C1c1ccccc1I (configuration not stated)
EC (Paracentrotus lividus [1]): > 4 µM
EC (Paracentrotus lividus [2]): > 4 µM
EC (Paracentrotus lividus [3]): 4 µM
